# Experimental data reported in patent US20210308173A1, “PHARMACEUTICAL COMPOSITION COMPRISING CYCLODEXTRIN COMPLEXES OF ANETHOLE TRITHIONE OR DERIVATIVES THEREOF” (priority 2018, published 2021).
# Assay: Cyclodextrin-AOL solubility diagrams
# Type: physicochemical
# From the text: A cyclodextrin-AOL solubility diagram would reveal the profile of the solubility curve of the AOL depending on the concentration of the cyclodextrin. The principle of this method is to add an excess of AOL to cyclodextrin solutions of increasing concentration, then to measure the amount of solubilized AOL. This method confirms the solubilization and evaluates more precisely the cyclodextrin solubilizing power, to define a stoichiometry of the complexes (molar and mass ratios) over the entire range of concentrations studied and to estimate the solubility limit and the stability of the mixtures.
# The solubilization was carried out with HP-β-CD and SBE-β-CD in a range of concentration ranging from 2.5% to 40% (m/m) at 20° C., 25° C. and 30° C. To check the stability of the solution, a storage test at 4° C. for 48 hours was carried out with the solutions previously prepared at 20° C.
# Aqueous solutions of cyclodextrin at in weight (m/m) concentrations of 2.5%, 5%, 10%, 20%, 30% and 40% were prepared in pure water. An excess of AOL was suspended in 2 mL each of these solutions. Each sample is shaken at 20° C., 25° C. or 30° C. for 4 hours (vortex at 1400 rpm). Each sample is centrifuged (12,500 g) and filtered through a 0.45 μm membrane.
# The solubility of AOL in each test solution was quantified by HPLC as detailed in Example 2.
# [1] = HP-β-CD 2.5% (w/w), 20° C. followed by 48 hours at 4° C.
# [2] = HP-β-CD 5% (w/w), 20° C. followed by 48 hours at 4° C.
# [3] = HP-β-CD 10% (w/w), 20° C. followed by 48 hours at 4° C.
# [4] = HP-β-CD 20% (w/w), 20° C. followed by 48 hours at 4° C.
# [5] = HP-β-CD 30% (w/w), 20° C. followed by 48 hours at 4° C.
# [6] = HP-β-CD 40% (w/w), 20° C. followed by 48 hours at 4° C.
# [7] = SBE-β-CD 2.5% (w/w), 20° C. followed by 48 hours at 4° C.
# [8] = SBE-β-CD 5% (w/w), 20° C. followed by 48 hours at 4° C.
# [9] = SBE-β-CD 10% (w/w), 20° C. followed by 48 hours at 4° C.
smiles,measurement,setting,value
"COc1ccc(-c2cc(=S)ss2)cc1 [AOL, 5-(4-methoxyphenyl)-3H-1,2-dithiole-3-thione]",CD/AOL molar ratio RM,"HP-β-CD 2.5% (w/w), 20° C.",200
same,CD/AOL weight ratio Rm,"HP-β-CD 2.5% (w/w), 20° C.",1866
same,CD/AOL molar ratio RM,[1],231
same,CD/AOL weight ratio Rm,[1],2155
same,CD/AOL molar ratio RM,"HP-β-CD 2.5% (w/w), 25° C.",137
same,CD/AOL weight ratio Rm,"HP-β-CD 2.5% (w/w), 25° C.",1282
same,CD/AOL molar ratio RM,"HP-β-CD 2.5% (w/w), 30° C.",103
same,CD/AOL weight ratio Rm,"HP-β-CD 2.5% (w/w), 30° C.",958
same,CD/AOL molar ratio RM,"HP-β-CD 5% (w/w), 20° C.",196
same,CD/AOL weight ratio Rm,"HP-β-CD 5% (w/w), 20° C.",1832
same,CD/AOL molar ratio RM,[2],213
same,CD/AOL weight ratio Rm,[2],1992
same,CD/AOL molar ratio RM,"HP-β-CD 5% (w/w), 25° C.",133
same,CD/AOL weight ratio Rm,"HP-β-CD 5% (w/w), 25° C.",1247
same,CD/AOL molar ratio RM,"HP-β-CD 5% (w/w), 30° C.",104
same,CD/AOL weight ratio Rm,"HP-β-CD 5% (w/w), 30° C.",973
same,CD/AOL molar ratio RM,"HP-β-CD 10% (w/w), 20° C.",175
same,CD/AOL weight ratio Rm,"HP-β-CD 10% (w/w), 20° C.",1631
same,CD/AOL molar ratio RM,[3],203
same,CD/AOL weight ratio Rm,[3],1898
same,CD/AOL molar ratio RM,"HP-β-CD 10% (w/w), 25° C.",128
same,CD/AOL weight ratio Rm,"HP-β-CD 10% (w/w), 25° C.",1192
same,CD/AOL molar ratio RM,"HP-β-CD 10% (w/w), 30° C.",94
same,CD/AOL weight ratio Rm,"HP-β-CD 10% (w/w), 30° C.",874
same,CD/AOL molar ratio RM,"HP-β-CD 20% (w/w), 20° C.",148
same,CD/AOL weight ratio Rm,"HP-β-CD 20% (w/w), 20° C.",1381
same,CD/AOL molar ratio RM,[4],197
same,CD/AOL weight ratio Rm,[4],1840
same,CD/AOL molar ratio RM,"HP-β-CD 20% (w/w), 25° C.",116
same,CD/AOL weight ratio Rm,"HP-β-CD 20% (w/w), 25° C.",1086
same,CD/AOL molar ratio RM,"HP-β-CD 20% (w/w), 30° C.",84
same,CD/AOL weight ratio Rm,"HP-β-CD 20% (w/w), 30° C.",784
same,CD/AOL molar ratio RM,"HP-β-CD 30% (w/w), 20° C.",132
same,CD/AOL weight ratio Rm,"HP-β-CD 30% (w/w), 20° C.",1235
same,CD/AOL molar ratio RM,[5],172
same,CD/AOL weight ratio Rm,[5],1607
same,CD/AOL molar ratio RM,"HP-β-CD 30% (w/w), 25° C.",112
same,CD/AOL weight ratio Rm,"HP-β-CD 30% (w/w), 25° C.",1044
same,CD/AOL molar ratio RM,"HP-β-CD 30% (w/w), 30° C.",70
same,CD/AOL weight ratio Rm,"HP-β-CD 30% (w/w), 30° C.",655
same,CD/AOL molar ratio RM,"HP-β-CD 40% (w/w), 20° C.",124
same,CD/AOL weight ratio Rm,"HP-β-CD 40% (w/w), 20° C.",1162
same,CD/AOL molar ratio RM,[6],159
same,CD/AOL weight ratio Rm,[6],1481
same,CD/AOL molar ratio RM,"HP-β-CD 40% (w/w), 25° C.",103
same,CD/AOL weight ratio Rm,"HP-β-CD 40% (w/w), 25° C.",958
same,CD/AOL molar ratio RM,"HP-β-CD 40% (w/w), 30° C.",66
same,CD/AOL weight ratio Rm,"HP-β-CD 40% (w/w), 30° C.",621
same,CD/AOL molar ratio RM,"SBE-β-CD 2.5% (w/w), 20° C.",91
same,CD/AOL weight ratio Rm,"SBE-β-CD 2.5% (w/w), 20° C.",853
same,CD/AOL molar ratio RM,[7],158
same,CD/AOL weight ratio Rm,[7],1479
same,CD/AOL molar ratio RM,"SBE-β-CD 2.5% (w/w), 25° C.",75
same,CD/AOL weight ratio Rm,"SBE-β-CD 2.5% (w/w), 25° C.",698
same,CD/AOL molar ratio RM,"SBE-β-CD 2.5% (w/w), 30° C.",60
same,CD/AOL weight ratio Rm,"SBE-β-CD 2.5% (w/w), 30° C.",559
same,CD/AOL molar ratio RM,"SBE-β-CD 5% (w/w), 20° C.",90
same,CD/AOL weight ratio Rm,"SBE-β-CD 5% (w/w), 20° C.",838
same,CD/AOL molar ratio RM,[8],155
same,CD/AOL weight ratio Rm,[8],1445
same,CD/AOL molar ratio RM,"SBE-β-CD 5% (w/w), 25° C.",71
same,CD/AOL weight ratio Rm,"SBE-β-CD 5% (w/w), 25° C.",668
same,CD/AOL molar ratio RM,"SBE-β-CD 5% (w/w), 30° C.",56
same,CD/AOL weight ratio Rm,"SBE-β-CD 5% (w/w), 30° C.",520
same,CD/AOL molar ratio RM,"SBE-β-CD 10% (w/w), 20° C.",85
same,CD/AOL weight ratio Rm,"SBE-β-CD 10% (w/w), 20° C.",798
same,CD/AOL molar ratio RM,[9],151
same,CD/AOL weight ratio Rm,[9],1414
same,CD/AOL molar ratio RM,"SBE-β-CD 10% (w/w), 25° C.",68
same,CD/AOL weight ratio Rm,"SBE-β-CD 10% (w/w), 25° C.",639
same,CD/AOL molar ratio RM,"SBE-β-CD 10% (w/w), 30° C.",54
same,CD/AOL weight ratio Rm,"SBE-β-CD 10% (w/w), 30° C.",507
same,CD/AOL molar ratio RM,"SBE-β-CD 20% (w/w), 20° C.",77
